From patent publication US6734205B2, “Substituted guanidine derivatives” (Sumitomo Pharmaceuticals Company Limited, priority 1999, dated 2004)
Structures can show the parent of a compound that is named as a salt.

Row | melting point | SMILES
1 | 273 to 284 °C (dec.) | Cn1c(C(=O)NC(=N)N)cc2c(Cl)ccc(CP(=O)(O)O)c21 [Example 18, [2-[[[Amino(imino)methyl]amino]carbonyl]-4-chloro-1-methyl-1H-indol-7-yl]methylphosphonic Acid]
2 | ≥ 300 °C | Cn1c(C(=O)NC(=N)N)cc2c(C(F)(F)F)cc(CCS(=O)(=O)O)cc21 [Example 39, 2-[2-[[[amino(imino)methyl]-amino]carbonyl]-1-methyl-4-(trifluoromethyl)-1H-indol-6-yl]ethanesulfonic Acid]
3 | 298 °C (dec.) | Cn1c(C(=O)NC(=N)N)cc2c(Cl)cc(OS(=O)(=O)O)cc21 (as salt: sulfate) [Example 11, 2-[[[Amino(imino)methyl]amino]carbonyl]-4-chloro-1-methyl-1H-indol-6-yl Hydrogen Sulfate]
4 | 247 °C | Cn1c(C(=O)NC(=N)N)cc2c(Cl)ccc(OCP(=O)(O)O)c21 [Example 48, [[2-[[[Amino(imino)methyl]amino]carbonyl]-4-chloro-1-methyl-1H-indol-7-yl]oxy]methylphosphonic Acid]
5 | 234 °C (dec.) | Br.Cn1c(C(=O)NC(=N)N)cc2c(C(F)(F)F)ccc(CCP(=O)(O)O)c21
6 | 303 to 304 °C (dec.) | Cc1cc(OS(=O)(=O)O)cc2c1cc(C(=O)NC(=N)N)n2C (as salt: sulfate) [Example 2, 2-[[[Amino(imino)methyl]amino]carbonyl]-1,4-dimethyl-1H-indol-6-yl Hydrogen Sulfate]
7 | ≥ 300 °C | Cn1c(C(=O)NC(=N)N)cc2c(C(F)(F)F)ccc(CCS(=O)(=O)O)c21 [Example 40, 2-[2-[[[Amino(imino)methyl]amino]carbonyl]-1-methyl-4-(trifluoromethyl)-1H-indol-7-yl]ethanesulfonic Acid]
8 | 281 °C (dec.) | N=C(N)NC(=O)c1cc2c(Cl)cccc2n1CCCS(=O)(=O)O [Example 27, 3-[2-[[[amino(imino)methyl]-amino]carbonyl]-4-chloro-1H-indol-1-yl]-1-propanesulfonic Acid]
9 | 298 °C (dec.) | Cn1c(C(=O)NC(=N)N)cc2c(C(F)(F)F)ccc(OS(=O)(=O)O)c21 (as salt: sulfate) [Example 13, 2-[[[Amino(imino)methyl]amino]carbonyl]-1-methyl-4-(trifluoromethyl)-1H-indol-7-yl Hydrogen Sulfate]
10 | 239 to 280 °C (dec.) | Cc1ccc(CP(=O)(O)O)c2c1cc(C(=O)NC(=N)N)n2C [Example 20, [2-[[[Amino(imino)methyl]amino]carbonyl]-1,4-dimethyl-1H-indol-7-yl]methylphosphonic Acid]
11 | ≥ 278 °C (dec.) | Cc1ccc(OCCCS(=O)(=O)O)c2c1cc(C(=O)NC(=N)N)n2C [Example 36, 3-[[2-[[[Amino(imino)methyl]amino]carbonyl]-1,4-dimethyl-1H-indol-7-yl]oxy]-1-propanesulfonic Acid]
12 | ≥ 272 °C (dec.) | Cn1c(C(=O)NC(=N)N)cc2c(C(F)(F)F)ccc(OCCCS(=O)(=O)O)c21 [Example 33, 3-[[2-[[[Amino(imino)methyl]amino]carbonyl]-1-methyl-4-(trifluoromethyl)-1H-indol-7-yl]oxy]-1-propanesulfonic Acid]
13 | > 315 °C (dec.) | Cc1ccc(OS(=O)(=O)O)c2c1cc(C(=O)NC(=N)N)n2C (as salt: sulfate) [Example 4, 2-[[[amino(imino)methyl]amino]-carbonyl]-1,4-dimethyl-1H-indol-7-yl Hydrogen Sulfate]
14 | 260 to 270 °C (dec.) | Cc1cc(OCC(=O)O)cc2c1cc(C(=O)NC(=N)N)n2C [Example 25, [[2-[[[Amino(imino)methyl]amino]carbonyl]-1,4-dimethyl-1H-indol-6-yl]oxy]acetic Acid]
15 | 283 to 284 °C (dec.) | Cn1c(C(=O)NC(=N)N)cc2ccc(OS(=O)(=O)O)cc21 (as salt: sulfate) [Example 7, 2-[[[Amino(imino)methyl]amino]carbonyl]-1-methyl-1H-indol-6-yl Hydrogen Sulfate]
16 | 210 to 225 °C (dec.) | Cn1c(C(=O)NC(=N)N)cc2c(Cl)ccc(OCC(=O)O)c21 [Example 24, [[2-[[[Amino(imino)methyl]amino]carbonyl]-4-chloro-1-methyl-1H-indol-7-yl]oxy]acetic Acid]
17 | 258 °C (dec.) | CS(=O)(=O)O.Cn1c(C(=O)NC(=N)N)cc2c(C(F)(F)F)ccc(P(=O)(O)O)c21
18 | 249 to 265 °C (dec.) | Cn1c(C(=O)NC(=N)N)cc2c(C(F)(F)F)ccc(CP(=O)(O)O)c21 [Example 16, [2-[[[Amino(imino)methyl]amino]carbonyl]-1-methyl-4-(trifluoromethyl)-1H-indol-7-yl]methylphosphonic Acid]
19 | 280 to 281 °C (dec.) | Cn1c(C(=O)NC(=N)N)cc2cc(OS(=O)(=O)O)ccc21 (as salt: sulfate) [Example 6, 2-[[[Amino(imino)methyl]amino]carbonyl]-1-methyl-1H-indol-5-yl Hydrogen Sulfate]

Row | melting point | SMILES
20 | 257 to 260 °C (dec.) | Cn1c(C(=O)NC(=N)N)cc2c(Cl)cc(OCC(=O)O)cc21 [Example 23, [[2-[[[Amino(imino)methyl]amino]carbonyl]-4-chloro-1-methyl-1H-indol-6-yl]oxy]acetic Acid]
21 | 170 to 171 °C | CS(=O)(=O)O.Cn1c(C(=O)NC(=N)N)cc2ccc(O[C@@H]3O[C@H](C(=O)O)[C@@H](O)[C@H](O)[C@H]3O)cc21 [Example 8, [2-[[[amino(imino)methyl]amino]-carbonyl]-1-methyl-1H-indol-6-yl] β-D-glucopyranosideuronic Acid Methanesulfonate]
22 | 267 to 268 °C (dec.) | Cc1c(OS(=O)(=O)O)ccc2c1cc(C(=O)NC(=N)N)n2C (as salt: sulfate) [Example 1, 2-[[[amino(imino)methyl]amino]-carbonyl]-1,4-dimethyl-1H-indol-5-yl Hydrogen Sulfate]
23 | 224 to 233 °C (dec.) | Cn1c(C(=O)NC(=N)N)cc2c(C(F)(F)F)ccc(OCC(=O)O)c21 [Example 22, [[2-[[[Amino(imino)methyl]amino]carbonyl]-1-methyl-4-(trifluoromethyl)-1H-indol-7-yl]oxy]acetic Acid]
24 | 275 °C (dec.) | Cn1c(C(=O)NC(=N)N)cc2c(C(F)(F)F)ccc(OCCS(=O)(=O)O)c21 [Example 31, 2-[[2-[[[Amino(imino)methyl]amino]carbonyl]-1-methyl-4-(trifluoromethyl)-1H-indol-7-yl]oxy]-ethanesulfonic Acid]
25 | ≥ 300 °C | Cc1cc(OCP(=O)(O)O)cc2c1cc(C(=O)NC(=N)N)n2C [Example 49, [[2-[[[Amino(imino)methyl]amino]carbonyl]-1,4-dimethyl-1H-indol-6-yl]oxy]methylphosphonic Acid]
26 | 256 °C (dec.) | Cn1c(C(=O)NC(=N)N)cc2c(Cl)ccc(CCP(=O)(O)O)c21 [Example 53, 2-[2-[[[Amino(imino)methyl]amino]carbonyl]-4-chloro-1-methyl-1H-indol-7-yl]ethylphosphonic Acid]
27 | ≥ 300 °C | Cn1c(C(=O)NC(=N)N)cc2c(C(F)(F)F)ccc(CS(=O)(=O)O)c21 [Example 38, [2-[[[Amino(imino)methyl]amino]carbonyl]-1-methyl-4-(trifluoromethyl)-1H-indol-7-yl]methanesulfonic Acid]
28 | > 300 °C | N=C(N)NC(=O)c1cc2c(C(F)(F)F)cccc2n1CCCS(=O)(=O)O [Example 28, 3-[2-[[[Amino(imino)methyl]amino]carbonyl]-4-(trifluoromethyl)-1H-indol-1-yl]-1-propanesulfonic Acid]
29 | ≥ 300 °C | Cn1c(C(=O)NC(=N)N)cc2c(C(F)(F)F)cc(CS(=O)(=O)O)cc21 [Example 37, [2-[[[amino(imino)methyl]amino]-carbonyl]-1-methyl-4-(trifluoromethyl)-1H-indol-6-yl]-methanesulfonic Acid]
30 | 260 °C (dec.) | Cn1c(C(=O)NC(=N)N)cc2c(C(F)(F)F)ccc(OCP(=O)(O)O)c21 [Example 46, [[2-[[[Amino(imino)methyl]amino]carbonyl]-1-methyl-4-(trifluoromethyl)-1H-indol-7-yl]oxy]methylphosphonic Acid]
31 | 292 °C (dec.) | Cn1c(C(=O)NC(=N)N)cc2c(C(F)(F)F)cc(OCP(=O)(O)O)cc21 [Example 45, [[2-[[[amino(imino)methyl]-amino]carbonyl]-1-methyl-4-(trifluoromethyl)-1H-indol-6-yl]oxy]-methylphosphonic Acid]
32 | 231 to 266 °C (dec.) | Cn1c(C(=O)NC(=N)N)cc2c(C(F)(F)F)cc(CP(=O)(O)O)cc21 [Example 15, [2-[[[amino(imino)methyl]amino]-carbonyl]-1-methyl-4-(trifluoromethyl)-1H-indol-6-yl]-methylphosphonic Acid]
33 | 325 °C (dec.) | Cn1c(C(=O)NC(=N)N)cc2c(Cl)cc(OCCCS(=O)(=O)O)cc21 [Example 34, 3-[[2-[[[Amino(imino)methyl]amino]carbonyl]-4-chloro-1-methyl-1H-indol-6-yl]oxy]-1-propanesulfonic Acid]
34 | ≥ 300 °C (dec.) | Cc1cc(CCS(=O)(=O)O)cc2c1cc(C(=O)NC(=N)N)n2C [Example 42, 2-[2-[[[Amino(imino)methyl]amino]carbonyl]-1,4-dimethyl-1H-indol-6-yl]ethanesulfonic Acid]
35 | 263 °C (dec.) | Cn1c(C(=O)NC(=N)N)cc2c(Cl)cc(OCP(=O)(O)O)cc21 [Example 47, [[2-[[[Amino(imino)methyl]amino]carbonyl]-4-chloro-1-methyl-1H-indol-6-yl]oxy]methylphosphonic Acid]
36 | 286 °C (dec.) | CS(=O)(=O)O.Cn1c(C(=O)NC(=N)N)cc2c(C(F)(F)F)cc(P(=O)(O)O)cc21
37 | 255 °C (dec.) | Cc1cc(CCP(=O)(O)O)cc2c1cc(C(=O)NC(=N)N)n2C [Example 54, 2-[2-[[[Amino(imino)methyl]amino]carbonyl]-1,4-dimethyl-1H-indol-6-yl]ethylphosphonic Acid]
